From patent US20160151403A1, “SMALL MOLECULE MODULATORS OF P53 FAMILY SIGNALING” (The Trustees of the University of Pennsylvania, priority 2006, published 2016)
“Also recorded” adds a separate entry of the source.

Columns and labels:
[1] = test system: p53 protein expression in HCT116 cells; assay: Western blot of p53 protein in parental HCT116 cells; assay type: cell-based, human; settings: FIG. 2A
Experimental: (§1) Cells were collected and protein concentration was quantified by the Bio-Rad protein assay prior to SDS-PAGE. Proteins were transferred to a PVDF membrane (Immobilon-P, Millipore Corporation, Bedford, Mass.) by a semi-dry transfer apparatus (Bio-Rad Laboratories, Hercules, Calif.). The membranes with transferred proteins were blotted with 10% W/V non-fat dry milk and then incubated with the primary antibody and subsequently secondary antibodies, which were labelled by horseradish peroxidase, or infrared dyes (IR). Signals were visualized by either ECL (Amersham Pharmacia Biotech, England, UK) and exposed to an X-ray film, or scanned by the Odyssey Infared Imaging System (LI-COR Biosciences, Lincoln, Nebr.). Anti-p53, DO-1, was from Santa Cruz biotechnology, Inc. (Santa Cruz, Calif.), anti-p73 (AB-1) and anti-p21 (AB-1) were obtained from Calbiochem (San Diego, Calif.). Anti-ser20 of p53 Cell were obtained from Signaling Technology (Danvers, Mass.) and anti-DR5 antibody was obtained from Cayman Chemical (Ann Arbor, Mich.).
(§2) The chemical library screening was directed at restoring “p53 responses” in p53-deficient cells. The small molecules identified by the cell-based screening procedure appeared to be able to restore p53 responses in p53-deficient colon tumors and to eliminate viable cells. Their function was further tested on wild-type p53-expressing and p53-knockout HCT116 colon adenocarcinoma cell lines. A number of candidate modulators of signaling by the p53 family appeared to induce expression of p53 target genes such as p21 or DR5(13) either with or without stabilizing p53 protein in HCT116 cells (FIG. 2A).

[2] = test system: DR5 and p21 in HCT116/p53(+/+) cells; assay: Western blot of p53 target genes DR5 and p21 in HCT116/p53(+/+) cells; assay type: cell-based, human; settings: parental HCT116 (p53+/+) cells, FIG. 2A
Experimental: (§3) FIGS. 2A-2B show protein levels of p53 target genes p21 and DR5 were induced by selected compounds in HCT/p53(+/+) cells (A) or HCT/p53(−/−) cells (B). In A, doses of compounds (μM) are listed above each lane. Cells treated with compounds were harvested and lysed for SDS-PAGE and immunoblotted with p21 or DR5 antibodies. Ran was used as a protein loading control. Doses of compounds in B were as follows: 2 μM for #15, 12 μM for #1 and #23, 20 μM for #20 and #32, 100 μM for #33, 200 μM for #5, #8, #12, #16, #17, and #22, and 400 μM for #3. The dose for adriamycin was 0.2 μg/ml. Cells were incubated for 16 hours at 37° C. with the various drugs prior to cell harvest;
as §1, §2

[3] = test system: DR5 and p21 in HCT116/p53(−/−) cells; assay: Western blot of p53 target genes DR5 and p21 in HCT116/p53(-/-) cells; assay type: cell-based, human; settings: p53-null HCT116 cells, 16 hours, doses per compound in FIG. 2B
Experimental: as §3, §1
A number of selected compounds was further tested on HCT116/p53^−/− cells to verify the possibility of induction of p53 target gene expression in the absence of p53. […] The importance of this observation is in establishing that it is possible to identify small molecules with the potential to induce p53 target gene expression in p53-deficient cells.

[4] = test system: HCT116/p53^+/+ cells; assay: Flow cytometry cell cycle profile, HCT116/p53(+/+); assay type: cell-based, human; settings: #17 200 μM, #23 10 μM
Experimental: FIGS. 3A-3F show: Structures (A) of isolated compounds and summary of their effects on the p53 family and transcriptional targets (B). Cell cycle profiles of HCT/p53(+/+) and HCT/p53(−/−) in response to treatment by selected compounds (C-E). The dose of #17 was 200 μM and for #23 it was 10 μM. F, p73 protein levels were elevated in HCT116/p53(−/−) cells in response to treatment by selected compounds at various concentrations as indicated;
Adherent cells in a 6-well plate were trypsinized and collected in 15 ml centrifuge tubes to which were added the originally floating cells. The collected cells were ethanol-fixed and stained with propidium iodide (Sigma, St. Louis, Mo.). The DNA content of the stained cells was then measured using an Epics Elite flow cytometer (Beckman-Coulter, Fullerton, Calif.).
The ability of selected compounds from the chemical library screen to induce apoptosis of human colon tumor cells and the dependence of their effects on endogenous p53 status was further evaluated.

[5] = test system: HCT116/p53(−/−)/PG13 cells; assay: p53 transcriptional activity, PG13 reporter, HCT116/p53(-/-)/PG13 cells; assay type: cell-based, human; settings: p53-null HCT116, 16 h, bioluminescence
Experimental: Cells were treated by the indicated compounds at progressive 1:2 serial dilutions for 16 h, and the luciferase activities were detected by bioluminescence imaging. Fold induction was calculated by comparing to the nontreated cells;

[6] = Toxicity in xenograft-bearing mice; assay type: in vivo; settings: i.p., #1 100 mg/kg, #14 50 mg/kg, #23 10 mg/kg
Experimental: Compounds #1, #14, #17, and #23 were tested in colon-tumor xenograft-bearing mice in order to evaluate their toxicities and potential anti-tumor effects (FIG. 4). […] The initial doses were chosen below maximal tolerated doses based on the NCI DTP toxicology databases for chemical compound testing in vivo so that mice would survive drug administration and allow subsequent evaluation of anti-tumor effects. p53-null HCT116 xenografts were first tested to document anti-tumor effects in p53-deficient tumors and an experiment to simulate therapy of established tumors was designed. A total of 2×10^6 p53-null HCT116 cells were implanted on opposite flanks subcutaneously in each of 6 nude mice in each group. When tumor masses grew to about 3-5 mm in diameter, drugs were administered intra-peritoneally (#1: 100 mg/kg; #14: 50 mg/kg; #23: 10 mg/kg), and on the next day additional groups received intravenous TRAIL (15) (100 μg/mice via the tail vein). Tumor weights were determined at 7 days later. […] Nonetheless in the future it may be possible to modify the structure of #17 or identify doses where synergistic interactions with TRAIL may be observed.

Compound	p53 protein expression [1]	expression of p53 targets DR5 and p21 proteins [2]	DR5 and p21 expression (p53 target genes) [3]	sub-G1 peak (apoptosis) [4]	p53 transcriptional activity (reporter assay response) [5]	overt toxicities in treated mice [6]
COc1cccc2c1C(=O)c1c(O)c3c(c(O)c1C2=O)CC(O)(/C(C)=N/O)CC3OC1CC(N)C(O)C(C)O1 (stereo not drawn) [#14]	increase p53 expression; also recorded: significantly increased p53 protein levels	increased expression of DR5 and p21 proteins	increasing expression of the p53 target genes DR5 and p21; also recorded: strongly induce p53 target gene expression	induced a sub-G1 peak characteristic of apoptosis	stronger responses in the reporter assays	No overt toxicities were observed
CO[C@H]1[C@@H](O)[C@@H](C)O[C@H](O[C@H]2[C@H](Oc3cccc4c(O)c5c(=O)oc6ccc(C)c7c(=O)oc(c34)c5c67)O[C@H](C)[C@H](O)[C@@H]2O)[C@@H]1O [#1]	increase p53 expression; also recorded: significantly increased p53 protein levels	increased expression of DR5 and p21 proteins	increasing expression of the p53 target genes DR5 and p21; also recorded: strongly induce p53 target gene expression	induced a sub-G1 peak characteristic of apoptosis	stronger responses in the reporter assays	No overt toxicities were observed
COc1cccc2c1C(=N)c1c(O)c3c(c(O)c1C2=O)C[C@@](O)(C(C)=O)C[C@@H]3O[C@H]1C[C@H](N)[C@H](O)[C@H](C)O1 [#23]	increase p53 expression; also recorded: significantly increased p53 protein levels	increased expression of DR5 and p21 proteins	increasing expression of the p53 target genes DR5 and p21; also recorded: strongly induce p53 target gene expression	induced a sub-G1 peak characteristic of apoptosis	stronger responses in the reporter assays	No overt toxicities were observed
